According to paper PMC9235172, “SHTXTHHly, an extracellular secretion platform for the preparation of bioactive peptides and proteins in Escherichia coli” (Microbial Cell Factories, 2022):
Residues, ends and D or L forms follow the SMILES beside them.

Tests used:
[1] = tested on: E. coli 25922; conditions: E. coli 25922 in MHB, 37 °C, 18 h, OD600, triplicate
Method: Fig. 4 Bioactivities determination of the produced AMPs. Different concentrations (0–4000 nM) of cCeA and rCeA (A), or cLL37 and rLL37 (B), were incubated with E. coli 25,922 at 37 °C for 18 h, then the OD600 values were detected. Different concentrations (0–64 μM) of cA12 and rA12 (C) were incubated with U87 MG cells for 8 h, and the number of live cells was measured with the CCK-8 reagent.
Overnight cultures of E. coli 25922 were diluted with fresh Mueller–Hinton Broth (MHB) to an optical density at 600 nm (OD600) at 0.1 and further diluted at 1:100 with fresh MHB. Then 100 μL bacterial suspension was added in triplicate to the 96-well plate. The commercial (APeptides, China) and bio-produced Cecropin A or LL37 were serially diluted with MHB medium and added into the 96-well plate to final concentrations of 2 to 2000 nM. The plate was incubated at 37 °C for 18 h, and the OD600 values were measured with Synergy LX multi-mode reader (BioTek, USA). Broth with bacterial inoculum without AMP and broth alone were used as control groups in which the relative biomass was set as 1 and 0, respectively.

[2] = tested on: Mo7e cells; assay: Mo7e cell proliferation, CCK-8; assay type: cell-based; conditions: 1 pM-100 nM, 4 days, read-out: EC50, promotion of Mo7e cells' proliferation
Method: Fig. 5 Bioactivities determination of RGDS, IL-15, and ADH in the SHTXTHHly fusion form. U87 MG cells were incubated with SHTRGDSTHHly/SHTRGESTHHly, mouse anti-S tag antibody, and the second antibody in sequence, then the cell staining was measured by FACS (A). U87 MG cells were incubated with SHTRGDSTHHly/SHTRGESTHHly and transferred into a fibronectin-coated plate. At different times, the attached cells were subjected to the CCK-8 reagent for quantification (B). In other experiments, cells were stained with DiO dye (green) and observed with a fluorescence microscope (C). Mo7e cells were incubated with different concentrations (1 pM-100 nM) of IL-15 and SHTIL15THHly for 4 days, and the cell numbers were measured with a CCK-8 reagent (D). The activities of ADH and SHTADHTHHly were compared using Ethyl Acetoacetate as the substrate and NADH as the co-factor (E). The activity was measured at 340 nm to monitor the decrease in the absorbance of NADH quantitatively. S: Slope. […] PBS is a blank control.
Mo7e cells were plated in a 96-well plate with a cell number of twenty thousand per well. After 4 h incubation, serially diluted IL-15 and SHTIL15THHly were added. After 4 days of incubation, the proliferation of cells was measured using the CCK-8 reagent.

| Compound | minimum inhibitory concentration (MIC) [1] [µM] | EC50 [2] [nM] |
| --- | --- | --- |
| CC[C@H](C)[C@H](NC(=O)CNC(=O)[C@H](CC(=O)O)NC(=O)[C@H](CCCNC(=N)N)NC(=O)[C@@H](NC(=O)[C@H](CC(N)=O)NC(=O)[C@H](CCC(N)=O)NC(=O)CNC(=O)[C@@H](NC(=O)[C@H](CCCCN)NC(=O)[C@H](CCC(=O)O)NC(=O)[C@@H](NC(=O)[C@H](CCCCN)NC(=O)[C@H](CCCCN)NC(=O)[C@H](Cc1ccccc1)NC(=O)[C@H](CC(C)C)NC(=O)[C@H](CCCCN)NC(=O)[C@H](Cc1c[nH]c2ccccc12)NC(=O)[C@@H](N)CCCCN)[C@@H](C)CC)C(C)C)[C@@H](C)CC)C(=O)N[C@H](C(=O)N[C@@H](CCCCN)C(=O)N[C@@H](C)C(=O)NCC(=O)N1CCC[C@H]1C(=O)N[C@@H](C)C(=O)N[C@H](C(=O)N[C@@H](C)C(=O)N[C@H](C(=O)N[C@H](C(=O)NCC(=O)N[C@@H](CCC(N)=O)C(=O)N[C@@H](C)C(=O)N[C@H](C(=O)N[C@@H](CCC(N)=O)C(=O)N[C@H](C(=O)N[C@@H](C)C(=O)N[C@@H](CCCCN)C(=O)O)[C@@H](C)CC)[C@@H](C)O)C(C)C)C(C)C)C(C)C)[C@@H](C)CC [cCeA, Cecropin A] (H-KWKLFKKIEKVGQNIRDGIIKAGPAVAVVGQATQIAK-OH) | 0.85 | – |
| CC[C@H](C)[C@H](NC(=O)[C@H](CCCCN)NC(=O)[C@H](CCC(=O)O)NC(=O)[C@H](CCCCN)NC(=O)[C@H](CO)NC(=O)[C@H](CCCCN)NC(=O)[C@H](CCCNC(=N)N)NC(=O)[C@H](Cc1ccccc1)NC(=O)[C@H](Cc1ccccc1)NC(=O)[C@H](CC(=O)O)NC(=O)CNC(=O)[C@H](CC(C)C)NC(=O)[C@@H](N)CC(C)C)C(=O)NCC(=O)N[C@@H](CCCCN)C(=O)N[C@@H](CCC(=O)O)C(=O)N[C@@H](Cc1ccccc1)C(=O)N[C@@H](CCCCN)C(=O)N[C@@H](CCCNC(=N)N)C(=O)N[C@H](C(=O)N[C@H](C(=O)N[C@@H](CCC(N)=O)C(=O)N[C@@H](CCCNC(=N)N)C(=O)N[C@H](C(=O)N[C@@H](CCCCN)C(=O)N[C@@H](CC(=O)O)C(=O)N[C@@H](Cc1ccccc1)C(=O)N[C@@H](CC(C)C)C(=O)N[C@@H](CCCNC(=N)N)C(=O)N[C@@H](CC(N)=O)C(=O)N[C@@H](CC(C)C)C(=O)N[C@H](C(=O)N1CCC[C@H]1C(=O)N[C@@H](CCCNC(=N)N)C(=O)N[C@H](C(=O)N[C@@H](CCC(=O)O)C(=O)N[C@@H](CO)C(=O)O)[C@@H](C)O)C(C)C)[C@@H](C)CC)C(C)C)[C@@H](C)CC [cL3, LL37] | 1.87 | – |
| IL-15: control monomeric IL-15 | – | 0.294 |
